In patent US20070185132A1, “Cyclopropyl group substituted oxazolidinone antibiotics and derivatives thereo” (priority 2003, published 2007):
≈ marks a conversion by molar mass, not a printed value.

Experiments:
Assay type in all cases: cell-based
[1] = test system: Staphylococcus aureus Smith; test: MIC, agar dilution method, S. aureus Smith; settings: Mueller-Hinton agar, 35° C., 24 hours
Experimental: (§1) The following in vitro results were obtained based on an agar dilution method except for C. pneumoniae. The activity is presented as the minimum inhibitory concentration (MIC).
(§2) S. aureus and M. catarrhalis were tested on Mueller-Hinton agar, using an approximate inoculum of 1×10^4 cfu/spot an incubation temperature of 35° C. for 24 hours. The MIC was defined as the lowest concentration at which no visible bacterial growth was observed.

[2] = test system: Streptococcus pneumoniae IID553; test: MIC, agar dilution method, S. pneumoniae IID553; settings: Mueller-Hinton agar with 5% defibrinated horse blood, 35° C., 5% CO2, 24 hours
Experimental: as §1
as §2, with “Streptococci” for “S. aureus”, “enterococci” for “M. catarrhalis”, “agar supplemented with 5% defibrinated horse blood,” for “agar,”, “C. in an atmosphere of 5% CO2” for “C.”

[3] = test system: Streptococcus pneumoniae PRQR (penicillin resistant, quinolone resistant); test: MIC, agar dilution method, S. pneumoniae PRQR; settings: Mueller-Hinton agar with 5% defibrinated horse blood, 35° C., 5% CO2, 24 hours
Experimental: as §1
as §2, with “Streptococci” for “S. aureus”, “enterococci” for “M. catarrhalis”, “agar supplemented with 5% defibrinated horse blood,” for “agar,”, “C. in an atmosphere of 5% CO2” for “C.”

[4] = test system: Enterococcus faecium VRQR (vancomycin resistant, quinolone resistant); test: MIC, agar dilution method, E. faecium VRQR; settings: Mueller-Hinton agar with 5% defibrinated horse blood, 35° C., 5% CO2, 24 hours
Experimental: as §1
as §2, with “Streptococci” for “S. aureus”, “enterococci” for “M. catarrhalis”, “agar supplemented with 5% defibrinated horse blood,” for “agar,”, “C. in an atmosphere of 5% CO2” for “C.”

[5] = test system: Moraxella catarrhalis ATCC25238; test: MIC, agar dilution method, M. catarrhalis ATCC25238; settings: Mueller-Hinton agar, 35° C., 24 hours
Experimental: as §1, §2

[6] = test system: Staphylococcus aureus MR (methicillin resistant); test: MIC, agar dilution method, S. aureus MR; settings: Mueller-Hinton agar, 35° C., 24 hours
Experimental: as §1, §2

[7] = test system: Staphylococcus aureus CR (chloramphenicol resistant); test: MIC, agar dilution method, S. aureus CR; settings: Mueller-Hinton agar, 35° C., 24 hours
Experimental: as §1, §2

[8] = test system: Streptococcus pyogenes IID692; test: MIC, agar dilution method, S. pyogenes IID692; settings: Mueller-Hinton agar with 5% defibrinated horse blood, 35° C., 5% CO2, 24 hours
Experimental: as §1
as §2, with “Streptococci” for “S. aureus”, “enterococci” for “M. catarrhalis”, “agar supplemented with 5% defibrinated horse blood,” for “agar,”, “C. in an atmosphere of 5% CO2” for “C.”

CC(=O)NC[C@H]1CN(c2ccc(-c3ccc(C4(C#N)CC4)nc3)c(F)c2)C(=O)O1 [Example 3, N-[5(S)-3-[4-[2-(1-Cyanocyclopropan-1-yl)pyridin-5-yl]-3-fluorophenyl]-2-oxooxazolidin-5-ylmethyl]acetamide]
MIC [1]: 0.06 µg/mL (≈ 0.152 µM) | MIC [2]: 0.125 µg/mL (≈ 0.317 µM) | MIC [3]: 0.125 µg/mL (≈ 0.317 µM) | MIC [4]: 0.125 µg/mL (≈ 0.317 µM) | MIC [5]: 0.5 µg/mL (≈ 1.27 µM) | MIC [6]: 0.125 µg/mL (≈ 0.317 µM) | MIC [7]: 0.5 µg/mL (≈ 1.27 µM) | MIC [8]: 0.125 µg/mL (≈ 0.317 µM)

CC(=O)NC[C@H]1CN(c2ccc(-c3ccc(C4(N)CC4)nc3)cc2)C(=O)O1 [Example 5, N-[5(S)-3-[4-[2-(1-Aminocyclopropan-1-yl)pyridin-5-yl]phenyl]-2-oxooxazolidin-5-ylmethyl]acetamide]
MIC [1]: 0.25 µg/mL (≈ 0.682 µM) | MIC [2]: 0.5 µg/mL (≈ 1.36 µM) | MIC [3]: 0.25 µg/mL (≈ 0.682 µM) | MIC [4]: 0.5 µg/mL (≈ 1.36 µM) | MIC [5]: 2 µg/mL (≈ 5.46 µM) | MIC [6]: 0.5 µg/mL (≈ 1.36 µM) | MIC [7]: 2 µg/mL (≈ 5.46 µM) | MIC [8]: 0.25 µg/mL (≈ 0.682 µM)

N#CC1(c2ccc(-c3ccc(N4C[C@H](Cn5ccnn5)OC4=O)cc3)cn2)CC1 [Example 18, 1-[5(R)-3-[4-[2-(1-Cyanocyclopropan-1-yl)pyridin-5-yl]phenyl]-2-oxooxazolidin-5-ylmethyl]-1,2,3-triazole]
MIC [1]: 0.06 µg/mL (≈ 0.155 µM) | MIC [2]: 0.125 µg/mL (≈ 0.323 µM) | MIC [3]: 0.125 µg/mL (≈ 0.323 µM) | MIC [4]: 0.125 µg/mL (≈ 0.323 µM) | MIC [5]: 0.5 µg/mL (≈ 1.29 µM) | MIC [6]: 0.06 µg/mL (≈ 0.155 µM) | MIC [7]: 1 µg/mL (≈ 2.59 µM) | MIC [8]: 0.06 µg/mL (≈ 0.155 µM)

CC(=O)NC[C@H]1CN(c2ccc(N3CCOCC3)c(F)c2)C(=O)O1 [Linezolid, reference compound]
MIC [1]: 1 µg/mL (≈ 2.96 µM) | MIC [2]: 2 µg/mL (≈ 5.93 µM) | MIC [3]: 1 µg/mL (≈ 2.96 µM) | MIC [4]: 2 µg/mL (≈ 5.93 µM) | MIC [5]: 4 µg/mL (≈ 11.9 µM) | MIC [6]: 1 µg/mL (≈ 2.96 µM) | MIC [7]: 16 µg/mL (≈ 47.4 µM) | MIC [8]: 1 µg/mL (≈ 2.96 µM)

N[C@@H]1[C@H]2CN(c3ccc(-c4ccc(N5C[C@H](Cn6ccnn6)OC5=O)cc4F)cn3)C[C@@H]12 [Example 32, 1-[5(R)-3-[4-[2-[(1α,5α,6α)-6-amino-3-azabicyclo[3.1.0]hexan-3-yl]pyridin-5-yl]-3-fluorophenyl]-2-oxooxazolidin-5-ylmethyl]-1,2,3-triazole]
MIC [1]: 0.125 µg/mL (≈ 0.287 µM) | MIC [2]: 0.25 µg/mL (≈ 0.574 µM) | MIC [3]: 0.125 µg/mL (≈ 0.287 µM) | MIC [4]: 0.5 µg/mL (≈ 1.15 µM) | MIC [5]: 2 µg/mL (≈ 4.59 µM) | MIC [6]: 0.125 µg/mL (≈ 0.287 µM) | MIC [7]: 1 µg/mL (≈ 2.3 µM) | MIC [8]: 0.125 µg/mL (≈ 0.287 µM)
